Experimental data taken from patent US8513462B2, “Pesticides and uses thereof” (Dow AgroSciences LLC, priority 2007, dated 2013).

Tests used:
[1] = system: green peach aphid (Myzus persicae); assay: Insecticidal test for green peach aphid in foliar spray assay; assay type: in vivo; conditions: 72 h, foliar spray on cabbage, Corrected % Control (Abbott) after three days, read-out: Rating against green peach aphid on cabbage (foliar spray)
Procedure: Squash seedlings with fully expanded cotyledon leaves were trimmed to one cotyledon per plant and infested with cotton aphid (wingless adults and nymphs) 1 day prior to chemical application. Each plant was examined before chemical application to ensure uniform infestation (ca. 30-70 aphids per plant). Compounds (2 mg) were dissolved in 2 ml of acetone:methanol (1:1) solvent, forming stock solutions of 1000 ppm. The stock solutions were diluted 5× with 0.025% Tween 20 in H2O to obtain a solution at 200 ppm. A hand-held Devilbiss aspirator type sprayer was used to apply the spray solutions until runoff to both sides of the squash cotyledon leaves. Four plants (4 replications) were used for each compound. Reference plants (solvent check) were sprayed with the diluent only. Treated plants were held in a holding room for 3 days at approximately 23° C. and 40% RH before the number of live aphids on each plant was recorded. Insecticidal activity was measured by Corrected % Control using Abbott's correction formula and presented in Table 1-Activity: Corrected % Control=100*(X−Y)/X • where X=No. of live aphids on solvent check plants • Y=No. of live aphids on treated plants Results are shown in Table 7. Insecticidal Test for Green Peach Aphid (Myzus persicae) in Foliar Spray Assay Cabbage seedlings grown in 3-inch pots, with 2-3 small (3-5 cm) true leaves, were used as test substrate. The seedlings were infested with 20-50 green peach aphids (wingless adult and nymph) 1-2 days prior to chemical application. Four seedlings were used for each treatment. Compounds (2 mg) were dissolved in 2 ml of acetone:methanol (1:1) solvent, forming stock solutions of 1000 ppm. The stock solutions were diluted 5× with 0.025% Tween 20 in H2O to obtain a solution at 200 ppm. A hand-held Devilbiss aspirator sprayer was used for spraying a solution to both sides of cabbage leaves until runoff. Reference plants (solvent check) were sprayed with the diluent only. Treated plants were held in a holding room for three days at approximately 23° C. and 40% RH prior to grading. Evaluation was conducted by counting the number of live aphids per plant under a microscope. Insecticidal activity was measured by using Abbott's correction formula: Corrected % Control=100*(X−Y)/X • where X=No. of live aphids on solvent check plants • Y=No. of live aphids on treated plants

[2] = system: cotton aphid (Aphis gossypii); assay: Insecticidal test for cotton aphid in foliar spray assay; assay type: in vivo; conditions: 72 h, foliar spray on squash, Corrected % Control (Abbott) after 3 days, read-out: Rating against cotton aphid on squash (foliar spray)
Procedure: The compounds identified in the foregoing examples were tested against cotton aphid using procedures described hereinafter. Insecticidal Test for Cotton Aphid (Aphis gossypii) in Foliar Spray Assay Squash seedlings with fully expanded cotyledon leaves were trimmed to one cotyledon per plant and infested with cotton aphid (wingless adults and nymphs) 1 day prior to chemical application. Each plant was examined before chemical application to ensure uniform infestation (ca. 30-70 aphids per plant). Compounds (2 mg) were dissolved in 2 ml of acetone:methanol (1:1) solvent, forming stock solutions of 1000 ppm. The stock solutions were diluted 5× with 0.025% Tween 20 in H2O to obtain a solution at 200 ppm. A hand-held Devilbiss aspirator type sprayer was used to apply the spray solutions until runoff to both sides of the squash cotyledon leaves. Four plants (4 replications) were used for each compound. Reference plants (solvent check) were sprayed with the diluent only. Treated plants were held in a holding room for 3 days at approximately 23° C. and 40% RH before the number of live aphids on each plant was recorded. Insecticidal activity was measured by Corrected % Control using Abbott's correction formula and presented in Table 1-Activity: Corrected % Control=100*(X−Y)/X • where X=No. of live aphids on solvent check plants • Y=No. of live aphids on treated plants Results are shown in Table 7. Insecticidal Test for Green Peach Aphid (Myzus persicae) in Foliar Spray Assay

Row | Compound | pest or weed control at 200 ppm [1] | melting point | pest or weed control at 200 ppm [2]
1 | CC(c1ccc(C(F)(F)F)nc1)S(C)(=O)=Nc1nc(C(F)(F)C(F)(F)F)cs1 (stereo not drawn) [Compound 30] | 80 to 100% | 95 to 100 °C | –
2 | CCOc1ccc(-c2csc(N=S(C)(=O)C(C)c3ccc(C(F)(F)F)nc3)n2)cc1 (stereo not drawn) [Compound 46] | 80 to 100% | 105 to 110 °C | –
3 | CC(c1ccc(C(F)(F)F)nc1)S(C)(=O)=Nc1ccccn1 (stereo not drawn) [Compound 4, 3-[1-ethyl(N-(2-pyridine)-sulfoximinyl)(methyl)]-6-trifluoromethylpyridine] | < 80% | – | 80 to 100%
4 | CC(c1ccc(C(F)(F)F)nc1)S(C)(=O)=Nc1nc(-c2ccc(C#N)cc2)cs1 (stereo not drawn) [Compound 43] | 80 to 100% | 78 to 80 °C | –
5 | CC(c1ccc(C(F)(F)F)nc1)S(C)(=O)=Nc1cccc[n+]1[O-] (stereo not drawn) [Compound 24, 3-[1-ethyl(N-(1-oxy-pyridin-2-e)-sulfoximinyl)(methyl)]-6-trifluoromethylpyridine] | < 80% | – | 80 to 100%
6 | CC(c1ccc(C(F)(F)F)nc1)S(C)(=O)=Nc1ncccn1 (stereo not drawn) [Compound 5] | – | – | < 80%
7 | CS(=O)(Cc1ccc(Cl)nc1)=Nc1nc(C(F)(F)F)cs1 (stereo not drawn) [Compound 58] | 80 to 100% | 122 to 125 °C | –
8 | CC(c1ccc(C(F)(F)F)nc1)S(C)(=O)=Nc1ccc(Cl)cn1 (stereo not drawn) [Compound 2, 3-[1-ethyl(N-(2-(5-chloro)pyridine)-sulfoximinyl)(methyl)]-6-trifluoromethylpyridine] | 80 to 100% | – | 80 to 100%
9 | CC(C)(C)c1csc(N=S2(=O)CCCC2c2ccc(Cl)nc2)n1 (stereo not drawn) [Compound 76] | 80 to 100% | 77 to 81 °C | –
10 | CC(c1ccc(C(F)(F)F)nc1)S(C)(=O)=Nc1nc(-c2ccc(Br)s2)cs1 (stereo not drawn) [Compound 37] | 80 to 100% | 160 to 165 °C | –
11 | CC(c1ccc(C(F)(F)F)nc1)S(C)(=O)=Nc1nc(Br)cs1 (stereo not drawn) [Compound 13, 5-{1-[methyl(4-bromo-1,3-thiazol-2-yl)sulfonimidoyl]ethyl}-2-(trifluoromethyl)pyridine] | < 80% | – | 80 to 100%
12 | COc1ccc(-c2csc(N=S3(=O)CCCC3c3ccc(Cl)nc3)n2)cc1 (stereo not drawn) [Compound 78] | < 80% | 88 to 94 °C | –
13 | COc1ccc(-c2csc(N=S(C)(=O)C(C)c3ccc(C(F)(F)F)nc3)n2)cc1OC (stereo not drawn) [Compound 48] | 80 to 100% | 153 to 160 °C | –
14 | CC(c1ccc(C(F)(F)F)nc1)S(C)(=O)=Nc1ccc(F)cn1 (stereo not drawn) [Compound 1, 3-[1-ethyl(N-(2-(5-fluoro)pyridine)-sulfoximinyl)(methyl)]-6-trifluoromethylpyridine] | 80 to 100% | – | 80 to 100%
15 | CC(c1ccc(C(F)(F)F)nc1)S(C)(=O)=Nc1nc(-c2ccc(F)cc2)cs1 (stereo not drawn) [Compound 27, 5-{1-[methyl(4-(4-fluorophenyl)-1,3-thiazol-2-yl)sulfonimidoyl]ethyl}-2-(trifluoromethyl)pyridine] | 80 to 100% | 89 to 94 °C | –
16 | CC(c1ccc(C(F)(F)F)nc1)S(C)(=O)=Nc1ccc([N+](=O)[O-])cn1 (stereo not drawn) [Compound 7] | 80 to 100% | – | 80 to 100%
17 | CC(c1ccc(C(F)(F)F)nc1)S(C)(=O)=Nc1ccncc1 (stereo not drawn) [Compound 8] | < 80% | – | < 80%
18 | CS(=O)(Cc1ccc(C(F)(F)F)nc1)=Nc1nc(C(F)(F)F)cs1 (stereo not drawn) [Compound 55] | 80 to 100% | 126 to 128 °C | –
19 | CC(c1ccc(C(F)(F)F)nc1)S(C)(=O)=Nc1nc(C(C)(C)C)cs1 (stereo not drawn) [Compound 29] | 80 to 100% | 144 to 148 °C | –
20 | CC(c1ccc(C(F)(F)F)nc1)S(C)(=O)=Nc1nc(-c2ccc(OC(F)(F)F)cc2)cs1 (stereo not drawn) [Compound 52] | 80 to 100% | 90 to 95 °C | –

Row | Compound | pest or weed control at 200 ppm [1] | melting point | pest or weed control at 200 ppm [2]
21 | CC(c1ccc(C(F)(F)F)nc1)S(C)(=O)=Nc1nc(-c2ccc(Br)cc2)co1 (stereo not drawn) [Compound 75] | < 80% | 134 to 137 °C | –
22 | CC(c1ccc(C(F)(F)F)nc1)S(C)(=O)=Nc1nccs1 (stereo not drawn) [Compound 6] | 80 to 100% | – | 80 to 100%
23 | CC(c1ccc(C(F)(F)F)nc1)S(C)(=O)=Nc1nc(-c2nccs2)cs1 (stereo not drawn) [Compound 39] | 80 to 100% | 163 to 167 °C | –
24 | CC(c1ccc(C(F)(F)F)nc1)S(C)(=O)=Nc1nc(-c2cccnc2)cs1 (stereo not drawn) [Compound 33] | 80 to 100% | 178 to 182 °C | –
25 | CCc1csc(N=S(C)(=O)Cc2ccc(C(F)(F)F)nc2)n1 (stereo not drawn) [Compound 56] | 80 to 100% | 114 to 116 °C | –
26 | CC(c1ccc(C(F)(F)F)nc1)S(C)(=O)=Nc1nc(C2CC2)cs1 (stereo not drawn) [Compound 32] | < 80% | 102 to 106 °C | –
27 | CC(c1ccc(C(F)(F)F)nc1)S(C)(=O)=Nc1nc(-c2ccccc2)cs1 (stereo not drawn) [Compound 15] | 80 to 100% | 88 to 93 °C | –
28 | COc1cccc(-c2csc(N=S(C)(=O)C(C)c3ccc(C(F)(F)F)nc3)n2)c1 (stereo not drawn) [Compound 44] | 80 to 100% | 107 to 110 °C | –
29 | COc1ccccc1-c1csc(N=S(C)(=O)C(C)c2ccc(C(F)(F)F)nc2)n1 (stereo not drawn) [Compound 51] | 80 to 100% | 72 to 77 °C | –
30 | CC(c1ccc(C(F)(F)F)nc1)S(C)(=O)=Nc1nc(-c2ccc(C(F)(F)F)cc2)cs1 (stereo not drawn) [Compound 45] | 80 to 100% | 124 to 127 °C | –
31 | CC(c1ccc(C(F)(F)F)nc1)S(C)(=O)=Nc1nc(-c2ccc(Cl)s2)cs1 (stereo not drawn) [Compound 41] | 80 to 100% | 124 to 128 °C | –
32 | CCc1csc(N=S(C)(=O)Cc2ccc(Cl)nc2)n1 (stereo not drawn) [Compound 59] | 80 to 100% | 114 to 116 °C | –
33 | COc1ccc(-c2csc(N=S(C)(=O)Cc3ccc(C(F)(F)F)nc3)n2)cc1 (stereo not drawn) [Compound 54] | < 80% | 158 to 161 °C | –
34 | CC(c1ccc(C(F)(F)F)nc1)S(C)(=O)=Nc1ccc(C(F)(F)F)cn1 (stereo not drawn) [Compound 12] | – | – | < 80%
35 | CC(c1ccc(C(F)(F)F)nc1)S(C)(=O)=Nc1nc(-c2ccc(Cl)c(Cl)c2)cs1 (stereo not drawn) [Compound 20] | 80 to 100% | – | –
36 | CC(c1ccc(C(F)(F)F)nc1)S(C)(=O)=Nc1nc(-c2ccccn2)cs1 (stereo not drawn) [Compound 35] | 80 to 100% | 134 to 141 °C | –
37 | CC(c1ccc(C(F)(F)F)nc1)S(C)(=O)=Nc1nc(-c2cc(-c3ccc(Cl)cc3)no2)cs1 (stereo not drawn) [Compound 42] | 80 to 100% | – | –
38 | CCc1csc(N=S2(=O)CCCC2c2ccc(Cl)nc2)n1 (stereo not drawn) [Compound 77] | 80 to 100% | 67 to 71 °C | –
39 | CCc1coc(N=S(C)(=O)C(C)c2ccc(C(F)(F)F)nc2)n1 (stereo not drawn) [Compound 70, 5-{1-[methyl(4-ethyl-1,3-oxazol-2-yl)sulfonimidoyl]ethyl}-2-(trifluoromethyl)pyridine] | 80 to 100% | – | –
40 | CC(c1ccc(C(F)(F)F)nc1)S(C)(=O)=Nc1nc(-c2ccsc2)cs1 (stereo not drawn) [Compound 38] | 80 to 100% | 168 to 173 °C | –
